Measured values from article PMC13309125, “Differential regulation of hepatic macrophage fate by Chi3l1 in metabolic dysfunction-associated steatotic liver disease” (eLife, 2026).

Target: T1, Chi3l1 (chitinase 3-like 1, YKL-40) (Mus musculus, UniProt Q61362)
T1 construct: recombinant mouse Chi3l1 (rChi3l1), labelled with His-Tag Labeling Kit RED-tris-NTA
Experiment: microscale thermophoresis (MST); supported by biotin-glucose pull-down competed by unlabeled glucose
Assay type: binding

T1 sequence (Q61362 30-389): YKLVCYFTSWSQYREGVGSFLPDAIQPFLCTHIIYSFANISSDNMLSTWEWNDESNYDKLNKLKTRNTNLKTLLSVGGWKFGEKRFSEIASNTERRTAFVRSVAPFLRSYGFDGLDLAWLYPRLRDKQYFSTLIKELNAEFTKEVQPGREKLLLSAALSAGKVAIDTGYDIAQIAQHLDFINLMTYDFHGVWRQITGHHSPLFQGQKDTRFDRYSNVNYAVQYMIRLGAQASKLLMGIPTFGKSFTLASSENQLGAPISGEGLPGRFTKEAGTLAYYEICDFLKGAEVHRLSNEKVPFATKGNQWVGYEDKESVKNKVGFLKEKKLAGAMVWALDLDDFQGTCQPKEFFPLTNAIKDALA

A Kd of 4.95 mM was found for `OC[C@H]1OC(O)[C@H](O)[C@@H](O)[C@@H]1O` (stereo partly shown) [glucose] in this work.
